The record followed here is ChEMBL document CHEMBL3046345, “Synthesis of novel pyrazole and pyrimidine derivatives bearing sulfonamide moiety as antitumor and radiosensitizing agents” (Med Chem Res, 2012).

Experiment [1] concerns HepG2. As to the kind of experiment: Potentiation of gamma-irradiation-induced cytotoxicity against Homo sapiens (human) HepG2 cells at 25 uM relative to control. The class given is functional.
Experiment [2] relates to HepG2. The experiment is described as follows: Potentiation of gamma-irradiation-induced cytotoxicity against Homo sapiens (human) HepG2 cells at 5 uM relative to control. The class given is functional.
Experiment [3] deals with HepG2. As to the kind of experiment: Cytotoxicity against Homo sapiens (human) HepG2 cells at 5 uM relative to control. The class given is functional.
The subject of experiment [4] is MCF7. As to the kind of experiment: Anticancer activity against Homo sapiens (human) MCF7 cells after 48 hr by SRB assay. The class given is functional, cell-based. The settings on record: MCF7, 48 h. In general terms: Sulforhodamine B stains cellular protein and so reports cell mass.
The test system of experiment [5] is HepG2. As to the kind of experiment: Cytotoxicity against Homo sapiens (human) HepG2 cells at 12.5 uM relative to control. It is filed as functional.
Experiment [6] deals with HepG2. As to the kind of experiment: Potentiation of gamma-irradiation-induced cytotoxicity against Homo sapiens (human) HepG2 cells at 40 uM relative to control. It is filed as functional.
Experiment [7] concerns HepG2. As to the kind of experiment: Cytotoxicity against Homo sapiens (human) HepG2 cells at 25 uM relative to control. It is filed as functional.
The test system of experiment [8] is HepG2. As to the kind of experiment: Anticancer activity against Homo sapiens (human) HepG2 cells after 48 hr by SRB assay. The class given is functional, cell-based. The settings on record: HepG2, 48 h.
Experiment [9] concerns HepG2. The experiment is described as follows: Potentiation of gamma-irradiation-induced cytotoxicity against Homo sapiens (human) HepG2 cells at 12.5 uM relative to control. The class given is functional.
Experiment [10] concerns HepG2. As to the kind of experiment: Cytotoxicity against Homo sapiens (human) HepG2 cells at 40 uM relative to control. It is filed as functional.

In general, IC50 refers to the point on the concentration scale where inhibition reaches its midpoint. A low value points to greater potency. As to `NC1=NN(c2ccccc2)C(=O)/C1=C/Nc1ccc(S(=O)(=O)Nc2ccccn2)cc1`, the Activity in experiment [1] is listed as 76.7%; in experiment [2] it was 62.1%; in experiment [3], 39.49%; in experiment [5], 57.82%; in experiment [6] it was 91.8%; in [7], 66.9%. For the same compound, the Activity in experiment [9] came to 80.8%; in experiment [10] it was 80.2%. The IC50 is 5.1 µM in experiment [4] and 3.49 µM in [8].
In the case of `Cc1cc(C)nc(NS(=O)(=O)c2ccc(N/C=C3/C(=N)N(c4ccccc4)N=C3N)cc2)n1`, the Activity was 92.9% in experiment [1]; 75.69% in [2]; 47.94% in experiment [3]; 64.14% in experiment [5]; 88.4% in experiment [6]; 74.3% in [7]. Besides, the Activity amounted to 86% in experiment [9] and 80.7% in [10]. Moreover, the IC50 turned out to be 6.98 µM in [4] and 3.76 µM in [8].
With `N=C1NN=C(N)/C1=C\Nc1ccc(S(=O)(=O)Nc2cnc3ccccc3n2)cc1`, the Activity is on record as 80.6% in [1]; 53.6% in [2]; 18.15% in experiment [3]; 55.27% in [5]; 88.2% in [6]; 73.2% in experiment [7]. The Activity is listed as 67% in experiment [9] and 85.8% in experiment [10]. Also, the IC50 in [4] is 7.78 µM; in [8], 3.22 µM.
Turning to `NC1=NN(c2ccccc2)C(=O)/C1=C/Nc1ccc(S(=O)(=O)Nc2cnc3ccccc3n2)cc1`, the Activity in experiment [1] was found to be 93.5%; in [2], 57.1%; in [3], 40.36%; in experiment [5] it was 65.3%; in experiment [6], 88.5%; in [7] it was 76.15%. The Activity in experiment [9] worked out at 77.8%; in [10] it was 79.39%. In addition, the IC50 in [4] amounted to 6.71 µM; in [8], 3.21 µM.
As to `Cc1cc(C)nc(NS(=O)(=O)c2ccc(-n3cc(C#N)c(=O)n(-c4ccccc4)c3=S)cc2)n1`, the Activity in experiment [1] is given as 77.5%; in experiment [2], 47.2%; in experiment [3] it was 19.98%; in [5], 49.12%; in experiment [6], 87.3%; in experiment [7] it was 62.2%. Moreover, the Activity in [9] is given as 70.8%; in experiment [10] it was 79.6%. Moreover, the IC50 in [4] stood at 5.63 µM; in experiment [8] it was 3.49 µM.
